Assay results as given in patent publication US5691348A, “Pyridyl imidazole derivatives and processes for the preparation thereof” (Daewoo Electronics Co., Ltd., priority 1994, dated 1997).
One block for each compound: values may come before it.

Tests used:
[1] = system: unanesthetized dogs; assay: Maximum blood pressure lowering effect in unanesthetized dogs at different amounts; assay type: in vivo, dog
Method: (§1) A number of dog was fed freely in a feeding room and those weighing 7 to 12 kg in good health were selected regardless of their gender.
(§2) The test dog was anesthetized with 30 mg/kg of pentobarbital sodium by intravenous injection and the left femoral artery and femoral vein were separated carefully. Silicone catheter, specially prepared and filled with saline treated with heparin (1,000 IU/ml), was cannulated into the blood vessels. After the surgery, the dog was constrained to measure the blood pressure continuously with Gould 2000 physiograph adapted to a Grass P23XL pressure transducer; and the heart rate was monitored with ECG/Biotacho amplifier. The dog was tested at least 2 days after the surgery.
(§3) 10 mg/kg of furosemide was injected intramuscularly 18 hours (in case of intravenous injection, 2 hours) before the beginning of the test (administration of the test compound) to improve the activity of renin in blood plasma. After the injection of furosemide, neither food nor water was provided. The test compound was suspended in Tween 80 and administered in an amount of 20 mg/kg orally. The blood pressure and heart rate were measured up to 8 hours after the administration of each test compound.
The maximum blood pressure lowering effect of the present compounds and the control compounds were determined in different amounts of administration using the same method as (i) and the results are given in Table 4.

[2] = system: angiotensin II receptor; assay: Angiotensin II receptor binding assay ([3H] angiotensin II); parameters: species or system rat (Sprague-Dawley adrenal cortex/medulla; Wistar liver); details: 25° C., 60 minutes, test concentration not given
Method: 1. Angiotensin II receptor binding assay
In accordance with the procedure disclosed in Chiu, A. T. et al., Eur. J. Pharm., 157, 13(1981), a ligand marked with a radioisotope was reacted with an angiotensin II receptor and the reactant was filtered with a glass fiber to remove unreacted ligand. After washing the filter, the amount of the remaining isotope was measured to determine the binding activity of the ligand, as described below in detail.
Sprague-Dawley rats and Wistar rats of 250 to 350 g (from The Korea Research Institute of Chemical Technology) were tested and the test procedures were carried out at 4° C., unless otherwise specified. Adrenal gland was separated from the Sprague-Dawley rats (liver, in the case of Wistar rats) into cortex and medulla. The separated adrenal cortex and medulla were washed with a sucrose buffer solution (0.2M sucrose, 1 mM EDTA, 10 mM Tris, Ph 7.2) and homogenized in the same buffer solution by using a Teflon pestle and a Brinkmann homogenizer. The homogenates were centrifuged at 3,000× g for 10 minutes to remove precipitates and further centrifuged at 12,000× g for 13 minutes. The final supernatants were centrifuged at 102,000× g for 1 hour to obtain precipitates, which were washed with a Tris buffer solution (50 mM Tris, 5 mM MgCl2, pH 7.2) and recentrifuged at 102,000× g for 1 hour. The resulting precipitates were immediately processed at the following step or stored at -70° C.
The precipitates were suspended in a Tris buffer solution. The amount of protein was determined by using a Bio-Rad DC protein analyzing kit and the protein concentration was adjusted to the amounts of: 0.2 to 0.3 mg/ml (Sprague-Dawley rat: adrenal cortex), 1.5 to 2.0 mg/ml (Sprague-Dawley rat: adrenal medulla), and 1.5 to 2.0 mg/ml (Wistar rat: liver). To the suspension, bovine serum albumin(BSA) was added to a concentration of 0.25 wt % and the resultant was immediately processed at the following step or stored at -70° C.
50 μl (based on ligand) of [^3 H] angiotensin II (NEN, NET-446) and 10 μl of each of the test compounds with various concentrations were added to the buffer solution (50 mM Tris (pH 7.2), 5 mM MgCl2, 0.25% BSA) to adjust the final volume to be 0.5 ml. 100 μl of the receptor suspension was added thereto and the resulting solution was reacted for 60 minutes while stirring in a water bath at 25° C. 3 ml of cold buffer solution for analysis was added to cease the reaction. The isotope which was bound to the receptor was isolated from the resultant by using Brandel Cell Harvester System with Whatman glass fiber GF/C. After washing the filter, the radioactivity of the filter was determined by using a liquid scintillation counter. Binding inhibition(%) of the test compound was calculated as follows:
Binding Inhibition(%)=[{(T-B)-(S-B)}/(T-B)]×100
wherein T is the radioactivity (cpm) of the reaction product untreated with the test compound, S is the radioactivity (cpm) of the reaction product treated with the test compound, and B is the radioactivity (cpm) of blank test.

[3] = system: renal hypertensive rat; assay: Blood pressure lowering effect in renal hypertension; assay type: in vivo, Sprague-Dawley rat; details: intravenous or oral (not specified)
Excerpt: (§4) To induce renal hypertension, left renal artery of 4 week-old male Sprague-Dawley rat (from The Korea Research Institute of Chemical Technology) was ligated. The rat was anesthetized with ether and the surgical region on the left abdomen of the rat was shaved, disinfected, and then incised about 1 cm vertically. The renal artery near abdominal aorta was isolated carefully from surrounding tissues and veins, and then ligated completely with a suture (4/0 sterile surgical silk). The muscular strata and skin of the surgical area were sutured with a suture (4/0 sterile surgical silk). The surgical region was disinfected to prevent infection and thereafter, 200 to 250 mg/kg/day of cephazolin sodium was injected intramuscularly for 2 days. 6 to 8 days after the ligation, rats showing systolic pressure of more than 180 mmHg were selected for renal hypertension test. The blood pressure was determined by a tail-cuff method from the tail under unanesthetized condition (Gerold, M. et al., Arzneimittel-Forsch., 18, 1285(1968)).
(§5) Each of the compounds to be tested was administered intravenously or orally into the renal hypertensive rat. The blood pressure of the rat was determined by direct method (Chiu, A. T. et al., J. Pharmacol. Exp. Ther., 250, 867(1989)) using a catheter. The rat was anesthetized with ketamine hydrochloride (125 mg/kg, i.p.) and a catheter was filled with saline and inserted into a carotid artery and […]. The surgical area was sutured with a metal clip. The rat was relaxed at least 3 hours and the catheter in the carotid artery was adapted to an isotec pressure transducer to determine the blood pressure and heart rate with a physiograph (Linearcorder WR3310). After the blood pressure was stabilized, the test compound was administered intravenously or orally. For intravenous administration, the administered volume and washing volume were 1.0 ml/kg and 0.2 ml, respectively. The blood pressure and heart rate were measured in regular intervals up to 24 hours after the administration of the test compound and compared with those measured after the administration of the control compound Losartan.
(§6) The test compound was dissolved in 0.05N KOH for intravenous administration and suspended in Tween 80 for oral administration.

[4] = system: renal hypertensive rat; assay: Blood pressure lowering effect with respect to dose (renal hypertensive rats); assay type: in vivo, Sprague-Dawley rat; details: oral
Excerpt: as §4, §5, §6
The present compounds, Losartan(Dup 753) and the Merck compound were administrated orally to rats in 10, 3 and 1 mg/kg under the same condition as in (ii) and the blood pressure lowering effect was determined.

[5] = system: unanesthetized dogs; assay: Blood pressure variation with time in unanesthetized dogs; assay type: in vivo, dog; details: for Maximum Blood Pressure Lowering Effect: 3 mg, oral
Method: as §1, §2
as §3, with “The test compound was suspended in Tween 80 and administered in an amount of 20 mg/kg orally.” left out

Structure (SMILES): CCCCc1nc2cc(-c3cc[n+]([O-])cc3)c(CO)nc2n1Cc1ccc(-c2ccccc2-c2nn[nH]n2)cc1 [Example 2, 2-Butyl-5-hyroxymethyl-6-(1-oxy-pyridin-4-yl)-3-[2'-(1H-tetrazol-5-yl)-biphenyl-4-ylmethyl]-3H-imidazo[4,5-b]pyridine]
- Binding Inhibition [2]: 96.9%

Structure (SMILES): CCCCc1nc(Cl)c(CO)n1Cc1ccc(-c2ccccc2-c2nn[nH]n2)cc1 [Losartan (Dup 753), Losartan, reference compound]
- Maximum Blood Pressure Lowering Effect ([1]; 3 mg/kg): -13%
- Maximum Blood Pressure Lowering Effect ([1]; 10 mg/kg): -23%
- Binding Inhibition [2]: 48.0%
- Maximum Blood Pressure Lowering Effect ([4]; 3 mg/kg): -30%
- Maximum Blood Pressure Lowering Effect ([4]; 10 mg/kg): -46%
- Maximum Blood Pressure Lowering Effect ([3]; Amount 10 mg): -27%
- Maximum Blood Pressure Lowering Effect ([5]; 0.5 hr): -11.0%
- Maximum Blood Pressure Lowering Effect ([5]; 1 hr): -12.3%
- Maximum Blood Pressure Lowering Effect ([5]; 2 hr): -12.8%
- Maximum Blood Pressure Lowering Effect ([5]; 4 hr): -9.9%
- Maximum Blood Pressure Lowering Effect ([5]; 6 hr): -10.1%
- Maximum Blood Pressure Lowering Effect ([5]; 8 hr): -8.2%
- time for which the maximum blood pressure lowering effect lasted after the administration ([5]; Table 3, present compounds 1.0 mg, control compound 3 mg): up to 2 hours

Structure (SMILES): CCCCc1nc2cc(-c3cc[n+]([O-])cc3)c(C)nc2n1Cc1ccc(-c2ccccc2-c2nn[nH]n2)cc1 [Example 7, 2-Butyl-5-methyl-6-(1-oxy-pyridin-4-yl)-3-[2'-(1H-tetrazol-5-yl)-biphenyl-4-ylmethyl]-3H-imidazo[4,5-b]pyridine]
- Binding Inhibition [2]: 95.5%

The next lines start with results.

- Binding Inhibition [2]: 94.6%
Structure (SMILES): CCCCc1nc2cc(-c3ccc[n+]([O-])c3)c(C)nc2n1Cc1ccc(-c2ccccc2-c2nn[nH]n2)cc1 [Example 6, 2-Butyl-5-methyl-6-(1-oxy-pyridin-3-yl)-3-[2'-(1H-tetrazol-5-yl)-biphenyl-4-ylmethyl]-3H-imidazo[4,5-b]pyridine]
- Maximum Blood Pressure Lowering Effect ([1]; 0.3 mg/kg): -9%
- Maximum Blood Pressure Lowering Effect ([1]; 1 mg/kg): -12%
- Maximum Blood Pressure Lowering Effect ([3]; Amount 3 mg): -38%

- Binding Inhibition [2]: 60.3%
Structure (SMILES): CCCCc1nc2cc(-c3cccc[n+]3[O-])c(C(=O)N(CC)CC)nc2n1Cc1ccc(-c2ccccc2-c2nn[nH]n2)cc1 [Example 5, 2-Butyl-6-(1-oxy-pyridin-2-yl)-3-[2'-(1H-tetrazol-5-yl)-biphenyl-4-ylmethyl]-3H-imidazo[4,5-b]pyridin-5-carboxylate Diethylamide]

- Binding Inhibition [2]: 92.1%
Structure (SMILES): CCCCc1nc2cc(-c3cccc[n+]3[O-])c(C(=O)OC)nc2n1Cc1ccc(-c2ccccc2-c2nn[nH]n2)cc1 [Example 4, 2-Butyl-5-methoxycarbonyl-6-(1-oxy-pyridin-2-yl)-3-[2'-(1H-tetrazol-5-yl)-biphenyl-4-ylmethyl]-3H-imidazo[4,5-b]pyridine]
